Results published in ChEMBL document CHEMBL1201862, “PubChem BioAssay data set” (2004).
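In this assay, cells in 96-well plates receive the compound at five concentrations for 48 hours. Endpoints are linearly interpolated between the surrounding concentrations. GI50 marks 50% less growth.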 Calls of active or inactive are those of the source. Cut-off read from the data, not from the text of the source: active = GI50 up to about 1.1 µM and inactive = higher.

Legend:
Assay in all cases: DTP human tumour cell line panel, 48 h
OVCAR-8 = tested on: OVCAR-8
SNB-19 = tested on: SNB-19
A549 = tested on: A549
MCF7 = tested on: MCF7
OVCAR-3 = tested on: OVCAR-3
A498 = tested on: A498
TK-10 = tested on: TK-10
MDA-MB-435 = tested on: MDA-MB-435
SF-295 = tested on: SF-295
BT-549 = tested on: BT-549
NCI-H460 = tested on: NCI-H460
COLO 205 = tested on: COLO 205
HCT-15 = tested on: HCT-15
HL-60 = tested on: HL-60
CCRF-CEM = tested on: CCRF-CEM
786-0 = tested on: 786-0
EKVX = tested on: EKVX
SK-MEL-28 = tested on: SK-MEL-28
SNB-75 = tested on: SNB-75
HCC 2998 = tested on: HCC 2998

## CC(C)(C)c1cc(CC2C(=O)c3ccccc3C2=O)cc(C(C)(C)C)c1O
OVCAR-8
  GI50: 3.05 µM (inactive)
SNB-19
  GI50: 2.94 µM (inactive)
A549
  GI50: 8.59 µM (inactive)
MCF7
  GI50: 3.66 µM (inactive)
OVCAR-3
  GI50: 2.89 µM (inactive)
A498
  GI50: 13.3 µM (inactive)
TK-10
  GI50: 5.57 µM (inactive)
MDA-MB-435
  GI50: 3.78 µM (inactive)
SF-295
  GI50: 3.24 µM (inactive)
BT-549
  GI50: 3.45 µM (inactive)
NCI-H460
  GI50: 4.48 µM (inactive)
COLO 205
  GI50: 3.6 µM (inactive)
HCT-15
  GI50: 2.9 µM
HL-60
  GI50: 2.54 µM (inactive)
CCRF-CEM
  GI50: 4.04 µM (inactive)
786-0
  GI50: 3.9 µM (inactive)
EKVX
  GI50: 5.37 µM (inactive)

## Cc1n[nH]c(=O)n1/N=C/c1cccc(Cl)c1
OVCAR-8
  GI50: 64.7 µM (inactive)
SNB-19
  GI50: > 100 µM (inactive)
A549
  GI50: > 100 µM (inactive)
MCF7
  GI50: > 100 µM (inactive)
SK-MEL-28
  GI50: > 100 µM (inactive)
OVCAR-3
  GI50: > 100 µM (inactive)
A498
  GI50: 40.8 µM (inactive)
MDA-MB-435
  GI50: 94.4 µM (inactive)
SF-295
  GI50: > 100 µM (inactive)
BT-549
  GI50: 47.2 µM (inactive)
SNB-75
  GI50: 61.5 µM (inactive)
NCI-H460
  GI50: > 100 µM (inactive)
COLO 205
  GI50: > 100 µM (inactive)
HCT-15
  GI50: > 100 µM
CCRF-CEM
  GI50: > 100 µM (inactive)
786-0
  GI50: > 100 µM (inactive)
EKVX
  GI50: 31 µM (inactive)
HCC 2998
  GI50: > 100 µM (inactive)

## CC(C)c1c(O)ccc2c1CCC1C(C)(C)CCCC21C (stereo unspecified)
OVCAR-8
  GI50: 17.8 µM (inactive)
SNB-19
  GI50: 18.2 µM (inactive)
A549
  GI50: 17 µM (inactive)
MCF7
  GI50: 19.1 µM (inactive)
SK-MEL-28
  GI50: 21.3 µM (inactive)
OVCAR-3
  GI50: 18.6 µM (inactive)
TK-10
  GI50: 20.7 µM (inactive)
MDA-MB-435
  GI50: 18.6 µM (inactive)
SF-295
  GI50: 17.9 µM (inactive)
BT-549
  GI50: 18.5 µM (inactive)
SNB-75
  GI50: 18.6 µM (inactive)
NCI-H460
  GI50: 17.4 µM (inactive)
COLO 205
  GI50: 17.8 µM (inactive)
HCT-15
  GI50: 18.9 µM
HL-60
  GI50: 29 µM (inactive)
CCRF-CEM
  GI50: 24.4 µM (inactive)
786-0
  GI50: 18.1 µM (inactive)
EKVX
  GI50: 17.3 µM (inactive)
HCC 2998
  GI50: 22 µM (inactive)

## C[N+](C)(N)Cc1csc(-c2ccc(Cl)cc2)n1
OVCAR-8
  GI50: > 100 µM (inactive)
SNB-19
  GI50: > 100 µM (inactive)
A549
  GI50: 71.8 µM (inactive)
MCF7
  GI50: > 100 µM (inactive)
SK-MEL-28
  GI50: > 100 µM (inactive)
OVCAR-3
  GI50: 89.5 µM (inactive)
A498
  GI50: 88.5 µM (inactive)
TK-10
  GI50: > 100 µM (inactive)
MDA-MB-435
  GI50: > 100 µM (inactive)
SF-295
  GI50: 67.1 µM (inactive)
BT-549
  GI50: 34 µM (inactive)
SNB-75
  GI50: 42.4 µM (inactive)
NCI-H460
  GI50: > 100 µM (inactive)
COLO 205
  GI50: > 100 µM (inactive)
HCT-15
  GI50: > 100 µM
786-0
  GI50: > 100 µM (inactive)
EKVX
  GI50: 64.3 µM (inactive)
HCC 2998
  GI50: > 100 µM (inactive)

## CCOC(=O)C(=[N+]=[N-])C(=O)CSC#N
OVCAR-8
  GI50: 46 µM (inactive)
SNB-19
  GI50: 97.5 µM (inactive)
A549
  GI50: 97.7 µM (inactive)
MCF7
  GI50: 38.4 µM (inactive)
SK-MEL-28
  GI50: > 100 µM (inactive)
A498
  GI50: > 100 µM (inactive)
TK-10
  GI50: 94.8 µM (inactive)
MDA-MB-435
  GI50: 22.6 µM (inactive)
SF-295
  GI50: > 100 µM (inactive)
BT-549
  GI50: 86.9 µM (inactive)
COLO 205
  GI50: > 100 µM (inactive)
HCT-15
  GI50: 51.4 µM
HL-60
  GI50: 39.3 µM (inactive)
CCRF-CEM
  GI50: 35.1 µM (inactive)
786-0
  GI50: > 100 µM (inactive)
EKVX
  GI50: > 100 µM (inactive)

## CC(C)OP(=O)(CCCCCCCCC/C=C/c1ccc2c(c1)OCCOCCOCCOCCO2)OC(C)C
OVCAR-8
  GI50: 3.15 µM (inactive)
SNB-19
  GI50: 3.41 µM (inactive)
A549
  GI50: 3.49 µM (inactive)
MCF7
  GI50: 3.23 µM (inactive)
SK-MEL-28
  GI50: 6.61 µM (inactive)
OVCAR-3
  GI50: 2.61 µM (inactive)
TK-10
  GI50: 9.29 µM (inactive)
MDA-MB-435
  GI50: 3.87 µM (inactive)
SF-295
  GI50: 3.08 µM (inactive)
BT-549
  GI50: 3.03 µM (inactive)
SNB-75
  GI50: 3.01 µM (inactive)
NCI-H460
  GI50: 2.61 µM (inactive)
COLO 205
  GI50: 1.99 µM (inactive)
HCT-15
  GI50: 2.46 µM
HL-60
  GI50: 7.67 µM (inactive)
CCRF-CEM
  GI50: 2.71 µM (inactive)
786-0
  GI50: 3.78 µM (inactive)
EKVX
  GI50: 3.79 µM (inactive)
HCC 2998
  GI50: 4.04 µM (inactive)

## COC(=O)C1=C(O)C(C(=O)OC)[C@@]2(O)[C@@H](C(=O)OC)C(c3ccc(OC(=O)/C(=C/c4ccccc4)c4ccccc4)cc3)C[C@@H]1[C@@H]2C(=O)OC (stereo partly specified)
OVCAR-8
  GI50: 14.1 µM (inactive)
SNB-19
  GI50: 30 µM (inactive)
A549
  GI50: 69.2 µM (inactive)
MCF7
  GI50: 10.5 µM (inactive)
SK-MEL-28
  GI50: 81.5 µM (inactive)
OVCAR-3
  GI50: 35.6 µM (inactive)
A498
  GI50: 40.8 µM (inactive)
TK-10
  GI50: 13.2 µM (inactive)
MDA-MB-435
  GI50: 10.5 µM (inactive)
SF-295
  GI50: 38.1 µM (inactive)
BT-549
  GI50: > 100 µM (inactive)
SNB-75
  GI50: 12.1 µM (inactive)
NCI-H460
  GI50: 5.21 µM (inactive)
COLO 205
  GI50: 40 µM (inactive)
HCT-15
  GI50: 7.18 µM
HL-60
  GI50: 17.4 µM (inactive)
CCRF-CEM
  GI50: 4.9 µM (inactive)
786-0
  GI50: 6.46 µM (inactive)
EKVX
  GI50: 64.6 µM (inactive)
